Eleven compounds from ChEMBL document CHEMBL1201862, “PubChem BioAssay data set” (2004) can be followed below.

Common to all, as to assay: inhibition of tumour cell growth, NCI panel, 48 h
Test [1] concerns CCRF-CEM.
The test system of test [2] is U-251.
Test [3] concerns SNB-75.
The test system of test [4] is MDA-N.
In test [5] the test system is SNB-19.
The subject of test [6] is HCT-116.
Test [7] concerns KM12.
Test [8] relates to MCF7.
Test [9] has as its system BT-549.
For test [10], the system named is SR.
Test [11] deals with TK-10.
In test [12] the test system is K562.
Test [13] has as its system SF-295.
For test [14], the system named is MDA-MB-231.
In test [15] the test system is DU-145.
Test [16] has as its system RXF 393.
Test [17] deals with Hs-578T.
Test [18] relates to SK-MEL-2.
The subject of test [19] is NCI/ADR-RES.
Test [20] has as its system CAKI-1.

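96-well plates; 48 h exposure; 5 concentrations. Endpoints by linear interpolation between flanking doses. Not reached: highest tested concentration assigned. GI50: concentration for 50% inhibition of growth.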 The source made the active and inactive calls. No stated cut-off is given here; in the data, active = GI50 up to about 1.1 µM and inactive = higher.

In the case of `CC1CCC2CC1NC(=O)CCOCCC(=O)NC2(C)C` (stereo unspecified), the GI50 in [1], in test [2], in [3], in test [4], in test [5] and in [6] was > 100 µM (inactive) in each case. The GI50 in [7], in test [8], in [9], in test [10], in test [11] and in [12] was > 100 µM (inactive) each time. Further, the GI50 in [13], in test [14] and in [15] was > 100 µM (inactive) in each case.

As for `COC12c3ccccc3-c3ccccc3C1[C@H]1C(=O)OC(=O)[C@H]12` (stereo partly specified), the GI50 in test [1], in test [16], in test [2], in [3], in [17] and in test [4] was > 10 µM (inactive) in each case. In addition, the GI50 in [18], in test [5], in [19], in test [7], in test [8] and in test [10] was > 10 µM (inactive) throughout. In addition, the GI50 in test [11], in test [12], in test [13], in [14], in test [20] and in test [15] was > 10 µM (inactive) in each case.

As to `O=C(Nc1ccc2oc(=O)c(C(=O)O)cc2c1)Oc1ccccc1`, the GI50 in [16], in test [2], in test [3], in test [17], in test [18] and in [5] was > 100 µM (inactive) each time. In addition, the GI50 in test [6], in [19], in [7], in test [8], in test [9] and in test [10] was > 100 µM (inactive) throughout. In addition, the GI50 in test [11], in [12], in [13], in test [14], in [20] and in [15] was > 100 µM (inactive) throughout.

For the compound `CC(=O)OC1CC2CC(=O)CC1N2C` (stereo unspecified), the GI50 in test [1], in test [16], in [2], in test [3], in [17] and in test [4] was > 100 µM (inactive) throughout. The GI50 in test [18], in [5], in test [6], in test [19], in test [7] and in test [8] was > 100 µM (inactive) throughout. In addition, the GI50 in test [10], in [11], in [12], in test [13], in test [14] and in test [20] was > 100 µM (inactive) throughout. For the same compound, in test [15], the GI50 was > 100 µM (inactive).

For the compound `C[n+]1cc2cc(O)c(O)cc2c2ccc3cc(O)c(O)cc3c21.c1ccncc1`, the GI50 in [1] was 1.17 µM (inactive); in [16], 2.07 µM (inactive); in [2], 1.6 µM (inactive); in [3], 3.31 µM (inactive); in [4] it was 3.25 µM (inactive); in test [18], 3.05 µM (inactive). Also, the GI50 is 1.49 µM (inactive) in [5]; 1.4 µM (inactive) in test [6]; 2.3 µM (inactive) in test [19]; 3.96 µM (inactive) in test [7]; 2.09 µM (inactive) in test [8]; 2.26 µM (inactive) in test [9]. Besides, the GI50 was 2.09 µM (inactive) in test [10]; 4.01 µM (inactive) in [11]; 1.71 µM (inactive) in test [12]; 3.39 µM (inactive) in test [13]; 2.79 µM (inactive) in test [14]; 3.05 µM (inactive) in test [20]. In addition, the GI50 in [15] is 3.57 µM (inactive).

On to `CC(=O)NNC(=S)N/C=C1/C(=O)C=C(C)OC1=O`, for which the GI50 in test [2], in test [3], in test [4], in test [18], in test [5] and in [6] was > 100 µM (inactive) each time. Further, the GI50 in test [19], in test [7], in test [8], in [9], in test [11] and in test [13] was > 100 µM (inactive) in each case. The GI50 in test [14], in test [20] and in [15] was > 100 µM (inactive) each time.

Regarding `CC1(C)CN=C(Nc2ccc(F)c(Cl)c2)S1`, the GI50 in test [1], in test [16], in test [2], in test [3], in test [17] and in test [4] was > 100 µM (inactive) each time. Besides, the GI50 in test [18], in test [5], in test [6], in test [19], in test [7] and in test [8] was > 100 µM (inactive) throughout. Moreover, the GI50 in [9], in [10], in test [11], in test [12], in [13] and in test [20] was > 100 µM (inactive) each time. In addition, the GI50 in test [15] is > 100 µM (inactive).

Consider `CN(C)c1ccc(/C=C2\C[C@H]3[C@@H]4CC=C5C[C@@H](O)CC[C@]5(C)[C@H]4CC[C@]3(C)C2=O)cc1`, for which the GI50 in [16] was 19.7 µM (inactive); in test [2], 12.9 µM (inactive); in [3] it was 23.2 µM (inactive); in [4], 32.4 µM (inactive); in [18], 19.7 µM (inactive); in test [5] it was 17.1 µM (inactive). In addition, the GI50 in [6] is 29.2 µM (inactive); in test [19], 19.1 µM (inactive); in test [7], 38.5 µM (inactive); in test [8] it was 30.5 µM (inactive); in [9] it was 53.5 µM (inactive); in test [10] it was 29.1 µM (inactive). The GI50 in test [11] was 20.3 µM (inactive); in [12] it was 32.8 µM (inactive); in test [13], 25.6 µM (inactive); in [14], 18 µM (inactive); in [15] it was 44 µM (inactive).

As to `CCOC(=O)C1=C(C)NC(c2ccccc2)=C(C(=O)OCc2ccccc2)C1C#Cc1ccccc1` (stereo unspecified), the GI50 in test [1] was > 100 µM (inactive); in [16], > 100 µM (inactive); in test [2] it was > 100 µM (inactive); in test [3], > 100 µM (inactive); in test [17] it was > 100 µM (inactive); in test [4], 0.274 µM (active). The GI50 in test [18], in [5], in test [6], in test [19], in test [7] and in [8] was > 100 µM (inactive) throughout. Moreover, the GI50 is > 100 µM (inactive) in [9]; > 100 µM (inactive) in test [10]; > 100 µM (inactive) in test [11]; > 100 µM (inactive) in test [12]; > 100 µM (inactive) in test [13]; 0.0675 µM (active) in [20]. The GI50 in test [15] was > 100 µM (inactive).

Consider `CCOC(=O)C1NCCc2c1[nH]c1ccccc21` (stereo unspecified), for which the GI50 in [1], in test [16], in test [3], in [4], in [7] and in [8] was > 10 µM (inactive) throughout. Further, the GI50 in test [9], in [10], in test [11], in [12], in test [13] and in [14] was > 10 µM (inactive) throughout. The GI50 in test [20] and in [15] was > 10 µM (inactive) each time.

Regarding `Cc1ccc2nc(-c3ccccc3)c(N=O)n2c1`, the GI50 in test [1] was 38.5 µM (inactive); in test [16], > 100 µM (inactive); in test [2] it was 38.9 µM (inactive); in test [3] it was 76.7 µM (inactive); in test [17] it was 79.4 µM (inactive); in test [18], > 100 µM (inactive). Also, the GI50 in [5] was 96.4 µM (inactive); in [6], 35.7 µM (inactive); in test [19], 46.2 µM (inactive); in test [7] it was 40.6 µM (inactive); in test [8], 11.6 µM (inactive); in [9], 37.1 µM (inactive). Besides, the GI50 was 38.3 µM (inactive) in test [11]; 91.2 µM (inactive) in test [12]; 87.1 µM (inactive) in [13]; 17.4 µM (inactive) in test [14]; 37.1 µM (inactive) in [20]; 46.6 µM (inactive) in test [15].
